Assay results as given in the NIST ThermoML archive (doi:10.1016/j.jct.2005.01.015).
Numbers after ± are expanded uncertainties.

Assay: activity coefficient (dimensionless); of the first substance listed, at infinite dilution; xn = mol fraction of the nth substance listed
Conditions: 101 kPa, Liquid, Chromatography, x1 = 0

Row | activity coefficient (298.15 K) | activity coefficient (303.15 K) | activity coefficient (308.15 K) | SMILES
1 | 80.9 ± 3.8 | 74.1 ± 3.5 | 71.1 ± 3.3 | CCCCCC [hexane] + CCCCn1cc[n+](C)c1.COCCOCCOS(=O)(=O)[O-]
2 | 7.37 ± 0.34 | 7.22 ± 0.33 | 7.42 ± 0.34 | C#CCCCCC [1-heptyne] + CCCCn1cc[n+](C)c1.COCCOCCOS(=O)(=O)[O-]
3 | 111 ± 5.2 | 100 ± 4.7 | 94.5 ± 4.4 | CCCCCCC [heptane] + CCCCn1cc[n+](C)c1.COCCOCCOS(=O)(=O)[O-]
4 | 11.7 ± 0.5 | 11.4 ± 0.5 | 11.6 ± 0.5 | C#CCCCCCC [1-octyne] + CCCCn1cc[n+](C)c1.COCCOCCOS(=O)(=O)[O-]
5 | 4.83 ± 0.22 | 4.74 ± 0.22 | 4.91 ± 0.22 | C#CCCCC [1-hexyne] + CCCCn1cc[n+](C)c1.COCCOCCOS(=O)(=O)[O-]
6 | 61.7 ± 2.9 | 57.1 ± 2.7 | 54.9 ± 2.6 | CCCCC [pentane] + CCCCn1cc[n+](C)c1.COCCOCCOS(=O)(=O)[O-]
7 | 74.9 ± 3.5 | 69.9 ± 3.3 | 67.1 ± 3.1 | C=CCCCCCC [oct-1-ene] + CCCCn1cc[n+](C)c1.COCCOCCOS(=O)(=O)[O-]
8 | 156 ± 7.3 | 140 ± 6.6 | 130 ± 6.1 | CCCCCCCC [octane] + CCCCn1cc[n+](C)c1.COCCOCCOS(=O)(=O)[O-]

Further lines, the compound ahead of its results:

Row | SMILES | activity coefficient (298.15 K) | activity coefficient (303.15 K) | activity coefficient (308.15 K)
9 | C1CCCCCC1 [cycloheptane] + CCCCn1cc[n+](C)c1.COCCOCCOS(=O)(=O)[O-] | 41.8 ± 1.9 | 38.2 ± 1.8 | 36.4 ± 1.7
10 | CO [methanol] + CCCCn1cc[n+](C)c1.COCCOCCOS(=O)(=O)[O-] | 0.345 ± 0.035 | 0.342 ± 0.035 | 0.337 ± 0.035
11 | Cc1ccccc1 [toluene] + CCCCn1cc[n+](C)c1.COCCOCCOS(=O)(=O)[O-] | 3.72 ± 0.17 | 3.69 ± 0.17 | 3.66 ± 0.17
12 | C=CCCCC [hex-1-ene] + CCCCn1cc[n+](C)c1.COCCOCCOS(=O)(=O)[O-] | 35.1 ± 1.6 | 32.9 ± 1.5 | 31.4 ± 1.5
13 | C1CCCC1 [cyclopentane] + CCCCn1cc[n+](C)c1.COCCOCCOS(=O)(=O)[O-] | 22.7 ± 1.1 | 20.9 ± 1 | 20.5 ± 0.9
14 | C1CCCCC1 [cyclohexane] + CCCCn1cc[n+](C)c1.COCCOCCOS(=O)(=O)[O-] | 34.4 ± 1.6 | 31.5 ± 1.5 | 30.3 ± 1.4
15 | c1ccccc1 [benzene] + CCCCn1cc[n+](C)c1.COCCOCCOS(=O)(=O)[O-] | 2.04 ± 0.09 | 2.02 ± 0.09 | 2.03 ± 0.09
16 | ClC(Cl)(Cl)Cl [tetrachloromethane] + CCCCn1cc[n+](C)c1.COCCOCCOS(=O)(=O)[O-] | 2.81 ± 0.13 | 2.85 ± 0.13 | 2.91 ± 0.13
